Results published in the supplement of paper PMC10307832.

Compound: CCOc1cc2ncc(C#N)c(Nc3ccc(OCc4ccccn4)c(Cl)c3)c2cc1NC(=O)/C=C/CN(C)C [Neratinib] + CS(=O)(=O)N1CCN(Cc2cc3nc(-c4cccc5[nH]ncc45)nc(N4CCOCC4)c3s2)CC1 [Pictilisib] (partner 1 µM)
Test: relative viability (nuclei count vs DMSO), 5 days (fraction); higher = more cells survive
Method in brief: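 Lung cancer cell lines were seeded in 1536-well plates and dosed by pin tool the next day, with either a single drug or a fixed anchor-drug dose combined with five library-drug doses (not always all listed) spaced in √10 steps. Five days later, one step fixed the cells and stained their nuclei (final 0.05% Triton X-100, 1% formaldehyde, 1 ug/ml Hoechst), and nuclei were counted on 4× images. Relative viability is the nuclei count in treated wells divided by the count in vehicle wells, and each value is the median of duplicate plates.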

| Cell Line | relative viability (first compound 0.01 µM) | relative viability (first compound 0.03162 µM) | relative viability (first compound 0.1 µM) | relative viability (first compound 0.3162 µM) | relative viability (first compound 1 µM) |
| --- | --- | --- | --- | --- | --- |
| 201T | 0.728 | 0.727 | 0.667 | 0.662 | 0.756 |
| A549 | 0.608 | 0.409 | 0.526 | 0.323 | 0.119 |
| A-427 | 0.952 | 0.738 | 0.773 | 0.675 | 0.62 |
| ABC-1 | 0.783 | 0.582 | 0.672 | 0.666 | 0.387 |
| BEN | 0.627 | 0.665 | 0.495 | 0.479 | 0.441 |
| CAL-12T | 0.491 | 0.548 | 0.362 | 0.396 | 0.218 |
| COR-L23 | – | – | 0.739 | 0.644 | 0.257 |
| COR-L 105 | 0.455 | 0.412 | 0.377 | 0.31 | 0.312 |
| Calu-6 | 0.924 | 1.01 | 0.891 | 0.788 | 0.405 |
| ChaGo-K-1 | 0.668 | 0.781 | 0.689 | 0.639 | 0.614 |
| EBC-1 | 0.398 | 0.408 | 0.378 | 0.319 | 0.274 |
| EKVX | 0.476 | 0.387 | 0.32 | 0.163 | 0.129 |
| EMC-BAC-2 | 0.584 | 0.558 | 0.443 | 0.468 | 0.371 |
| EPLC-272H | 0.376 | 0.387 | 0.316 | 0.338 | 0.307 |
| H3255 | 0.453 | 0.469 | 0.301 | 0.117 | 0.109 |
| HARA | 0.494 | 0.294 | 0.362 | 0.262 | 0.336 |
| HCC-15 | 0.824 | 0.809 | 0.712 | 0.781 | 0.618 |
| HCC-44 | 0.852 | 0.561 | 0.655 | 0.642 | 0.643 |
| HCC-78 | 0.184 | 0.233 | 0.215 | 0.215 | 0.182 |
| HCC-366 | 0.174 | 0.149 | 0.101 | 0.137 | 0.112 |
| HCC-827 | 0.872 | 0.88 | 0.73 | 0.623 | 0.219 |
| HOP-62 | 0.677 | 0.826 | 0.691 | 0.669 | 0.52 |
| IA-LM | 0.33 | 0.318 | 0.193 | 0.197 | 0.126 |
| LC-2-ad | 0.525 | 0.485 | 0.0712 | 0.249 | 0.162 |
| LCLC-97TM1 | 0.212 | 0.164 | 0.199 | 0.143 | 0.138 |
| LCLC-103H | 0.597 | 0.668 | 0.575 | 0.582 | 0.587 |

| Cell Line | relative viability (first compound 0.01 µM) | relative viability (first compound 0.03162 µM) | relative viability (first compound 0.1 µM) | relative viability (first compound 0.3162 µM) | relative viability (first compound 1 µM) |
| --- | --- | --- | --- | --- | --- |
| LK-2 | 0.653 | 0.566 | 0.594 | 0.446 | 0.266 |
| LOU-NH91 | 0.53 | 0.496 | 0.483 | 0.484 | 0.469 |
| LU99A | 0.31 | 0.311 | 0.285 | 0.263 | 0.207 |
| LXF-289 | 0.785 | 0.821 | – | 0.759 | 0.418 |
| NCI-H23 | 0.553 | 0.428 | 0.437 | 0.483 | 0.372 |
| NCI-H322M | 0.528 | 0.455 | 0.499 | 0.333 | 0.327 |
| NCI-H358 | 0.302 | 0.336 | 0.231 | 0.295 | 0.228 |
| NCI-H441 | 0.508 | 0.482 | 0.456 | 0.313 | 0.191 |
| NCI-H460 | 0.325 | 0.384 | 0.294 | 0.323 | 0.32 |
| NCI-H520 | 0.297 | 0.377 | 0.222 | 0.215 | 0.188 |
| NCI-H596 | 0.374 | 0.417 | 0.35 | 0.4 | 0.329 |
| NCI-H647 | 0.437 | 0.506 | 0.456 | 0.364 | 0.183 |
| NCI-H650 | 0.974 | 0.898 | 0.729 | – | 0.644 |
| NCI-H661 | 0.507 | 0.399 | 0.303 | 0.24 | 0.272 |
| NCI-H727 | 0.337 | 0.256 | – | 0.516 | 0.258 |
| NCI-H838 | 0.466 | 0.54 | 0.473 | 0.375 | 0.25 |
| NCI-H1299 | 0.729 | 0.901 | 0.805 | 0.459 | 0.28 |
| NCI-H1355 | 0.485 | 0.482 | 0.395 | 0.365 | 0.232 |
| NCI-H1395 | 0.595 | 0.679 | 0.602 | 0.659 | 0.449 |
| NCI-H1437 | 0.474 | 0.553 | 0.356 | 0.325 | 0.343 |
| NCI-H1563 | 0.608 | 0.636 | 0.664 | 0.617 | 0.602 |
| NCI-H1650 | 0.565 | 0.682 | 0.513 | 0.531 | 0.517 |
| NCI-H1651 | 0.661 | 0.633 | 0.422 | 0.449 | 0.343 |
| NCI-H1666 | 0.549 | – | 0.327 | 0.218 | 0.271 |
| NCI-H1703 | 0.23 | 0.224 | 0.244 | 0.201 | 0.212 |
| NCI-H1734 | 0.5 | 0.464 | 0.428 | 0.432 | 0.346 |

| Cell Line | relative viability (first compound 0.01 µM) | relative viability (first compound 0.03162 µM) | relative viability (first compound 0.1 µM) | relative viability (first compound 0.3162 µM) | relative viability (first compound 1 µM) |
| --- | --- | --- | --- | --- | --- |
| NCI-H1755 | 0.475 | 0.455 | 0.407 | 0.36 | 0.209 |
| NCI-H1792 | 0.311 | 0.274 | 0.254 | 0.278 | 0.126 |
| NCI-H1793 | 0.31 | 0.361 | 0.319 | 0.339 | 0.275 |
| NCI-H1915 | – | 1.03 | 0.93 | 0.904 | 0.881 |
| NCI-H1944 | 0.387 | 0.341 | 0.193 | 0.31 | 0.266 |
| NCI-H1975 | 0.328 | 0.372 | 0.209 | 0.104 | 0.143 |
| NCI-H1993 | – | 0.772 | 0.721 | 0.796 | – |
| NCI-H2009 | 0.862 | 0.892 | 0.727 | 0.638 | 0.432 |
| NCI-H2023 | 0.209 | 0.233 | 0.233 | 0.228 | 0.177 |
| NCI-H2085 | 0.526 | 0.436 | 0.462 | 0.408 | 0.373 |
| NCI-H2087 | 0.989 | 0.899 | – | 0.799 | 0.492 |
| NCI-H2126 | – | 0.495 | 0.431 | 0.414 | 0.365 |
| NCI-H2170 | 0.314 | 0.253 | 0.206 | 0.189 | 0.256 |
| NCI-H2228 | 0.365 | 0.346 | 0.301 | 0.442 | 0.199 |
| NCI-H2347 | 0.603 | 0.547 | 0.503 | 0.582 | 0.524 |
| NCI-H2405 | 0.522 | 0.547 | 0.515 | 0.399 | 0.29 |
| NCI-H3122 | 0.634 | 0.589 | 0.474 | 0.619 | 0.214 |
| PC-3 [JPC-3] | 0.81 | 0.739 | 0.616 | 0.536 | 0.473 |
| PC-14 | 0.927 | 0.805 | 0.66 | 0.121 | 0.101 |
| RERF-LC-KJ | 0.554 | 0.501 | 0.435 | 0.384 | 0.276 |
| SK-LU-1 | 0.647 | 0.65 | 0.514 | 0.505 | 0.34 |
| SK-MES-1 | 0.347 | 0.338 | 0.238 | 0.207 | 0.177 |
| SW 1573 | 0.523 | 0.586 | 0.399 | 0.508 | 0.249 |
| UMC-11 | 0.776 | 1.06 | 0.566 | 0.746 | 0.701 |
